Experimental findings from US20210154317A1, “COMPOSITIONS AND METHODS FOR THE TREATMENT OF VIRAL INFECTIONS” (Silverback Therapeutics, Inc., priority 2017, published 2021) are described below.

Each structure is given as a SMILES string.

This assay deals with monax PBMC. The assay can be described thus: Marmota TNFα expression in stimulated PBMC by real time PCR. It counts as cell-based. Conditions: TaqMan real time PCR. The protocol: Total RNA was extracted from stimulated monax PBMC using the RNeasy®Mini kit (Qiagen, Maryland, MD) according to the manufacturer's protocol. Briefly, cells were pelleted and resuspended in 600 ul RLT buffer. The sample was vortexed and then run through a QIAshredder column. RNA was extracted from the supernatant and eluted with a 30 uL volume. RNA purity was assessed (A260/A280) using a Nanodrop one spectrophotometer (Thermofisher Scientific, Waltham, Mass., USA). For removal of genomic DNA, 800 ng RNA was incubated with 2 units DNase I (RNase-free) (New England Biolabs, Ipswich, Mass., USA) in DNase reaction buffer at 37° C. for 10 min. […]
The generation of oligonucleotide dimers for each TaqMan primer pair was assessed using Power SYBR®Green PCR Master-Mix (Foster City, Calif., Applied Biosystems) with melting curve analysis, according to the manufacturer's instructions. […] Data were analyzed using the Step One Software to generate Ct value for each sample.
A plot of Ct versus log copy number standard curve was generated using synthesized monax TNFα cDNA standard. The Ct value for each data point was then determined and normalized to the standard curve to obtain the copy number. […]

For `CCOCc1nc2c(N)nc3ccccc3c2n1CC(C)(C)OCCNC(=O)C(C)(C)N`, the “monax TNFα gene activation (copy number per ng of mRNA)” value is recorded as “potent activation”. In the case of `CCCN(CCC)C(=O)C1=Cc2ccc(C(=O)Nc3cnc4c(c3)CNCC4)cc2N=C(N)C1` [Compound 1.50, 2-amino-N^4,N^4-dipropyl-N^8-(5,6,7,8-tetrahydro-1,6-naphthyridin-3-yl)-3H-benzo[b]azepine-4,8-dicarboxamide], the “monax TNFα gene activation (copy number per ng of mRNA)” value was “potent activation”.
